Laboratory results as given in ChEMBL document CHEMBL5331139, “First-in-Class Dual Targeting Compounds for the Management of Seizures in Glucose Transporter Type 1 Deficiency Syndrome” (J Med Chem, 2023).

Columns and labels:
Carbonic anhydrase 12 = Carbonic anhydrase 12 (Homo sapiens, UniProt O43570)
Description: Binding affinity to human recombinant carbonic anhydrase 12 assessed as inhibition constant incubated for 15 mins by phenol red based stopped-flow CO2 hydration assay

[1] = target: Carbonic anhydrase 5B, mitochondrial (Homo sapiens, UniProt Q9Y2D0)
Description: Binding affinity to human recombinant carbonic anhydrase 5B assessed as inhibition constant incubated for 15 mins by phenol red based stopped-flow CO2 hydration assay

Carbonic anhydrase 7 = Carbonic anhydrase 7 (Homo sapiens, UniProt P43166)
Description: Binding affinity to human recombinant carbonic anhydrase 7 assessed as inhibition constant incubated for 15 mins by phenol red based stopped-flow CO2 hydration assay

Carbonic anhydrase 2 = Carbonic anhydrase 2 (Homo sapiens, UniProt P00918)
Description: Binding affinity to human recombinant carbonic anhydrase 2 assessed as inhibition constant incubated for 15 mins by phenol red based stopped-flow CO2 hydration assay

Carbonic anhydrase 4 = Carbonic anhydrase 4 (Homo sapiens, UniProt P22748)
Sequence of Carbonic anhydrase 4 (P22748 whole entry): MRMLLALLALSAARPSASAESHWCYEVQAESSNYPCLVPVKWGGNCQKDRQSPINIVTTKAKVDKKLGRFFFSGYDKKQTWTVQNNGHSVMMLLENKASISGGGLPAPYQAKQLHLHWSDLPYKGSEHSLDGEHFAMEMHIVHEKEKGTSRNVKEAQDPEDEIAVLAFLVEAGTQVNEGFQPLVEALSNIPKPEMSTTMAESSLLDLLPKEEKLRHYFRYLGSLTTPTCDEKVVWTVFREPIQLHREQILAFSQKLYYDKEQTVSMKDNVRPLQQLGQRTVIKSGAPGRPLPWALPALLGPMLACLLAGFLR
Description: Binding affinity to human recombinant carbonic anhydrase 4 assessed as inhibition constant incubated for 15 mins by phenol red based stopped-flow CO2 hydration assay

in vivo [2] = settings: C57BL/6, mouse, 300 mg/kg
Description: Toxicity in MES induced C57BL/6 mouse model assessed as animal death at 300 mg/kg

Carbonic anhydrase 1 = Carbonic anhydrase 1 (Homo sapiens, UniProt P00915)
Sequence of Carbonic anhydrase 1 (P00915 whole entry): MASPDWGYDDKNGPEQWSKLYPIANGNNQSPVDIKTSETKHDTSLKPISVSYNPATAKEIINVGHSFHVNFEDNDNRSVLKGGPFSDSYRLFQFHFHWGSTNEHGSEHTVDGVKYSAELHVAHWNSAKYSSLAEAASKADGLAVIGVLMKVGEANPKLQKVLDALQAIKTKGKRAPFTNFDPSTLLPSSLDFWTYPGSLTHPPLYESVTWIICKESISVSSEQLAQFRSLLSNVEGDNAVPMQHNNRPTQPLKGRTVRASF
Description: Binding affinity to human recombinant carbonic anhydrase 1 assessed as inhibition constant incubated for 15 mins by phenol red based stopped-flow CO2 hydration assay

[3] = target: Carbonic anhydrase 5A, mitochondrial (Homo sapiens, UniProt P35218)
Sequence of Carbonic anhydrase 5A, mitochondrial (P35218 whole entry): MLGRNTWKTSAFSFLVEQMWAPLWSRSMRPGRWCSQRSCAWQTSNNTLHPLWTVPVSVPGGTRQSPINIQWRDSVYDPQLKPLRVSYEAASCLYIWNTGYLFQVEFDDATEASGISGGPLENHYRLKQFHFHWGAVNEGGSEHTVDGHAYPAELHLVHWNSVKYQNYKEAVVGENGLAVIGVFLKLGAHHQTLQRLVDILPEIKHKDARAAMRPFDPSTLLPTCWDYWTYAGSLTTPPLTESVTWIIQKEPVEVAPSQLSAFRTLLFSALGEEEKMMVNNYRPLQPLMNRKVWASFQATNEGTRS
Description: Binding affinity to human recombinant carbonic anhydrase 5A assessed as inhibition constant incubated for 15 mins by phenol red based stopped-flow CO2 hydration assay

in vivo [4] = settings: C57BL/6, mouse, 200 mg/kg
Description: Toxicity in MES induced C57BL/6 mouse model assessed as mortality at 200 mg/kg

Sequence of Carbonic anhydrase 7 (P43166 whole entry): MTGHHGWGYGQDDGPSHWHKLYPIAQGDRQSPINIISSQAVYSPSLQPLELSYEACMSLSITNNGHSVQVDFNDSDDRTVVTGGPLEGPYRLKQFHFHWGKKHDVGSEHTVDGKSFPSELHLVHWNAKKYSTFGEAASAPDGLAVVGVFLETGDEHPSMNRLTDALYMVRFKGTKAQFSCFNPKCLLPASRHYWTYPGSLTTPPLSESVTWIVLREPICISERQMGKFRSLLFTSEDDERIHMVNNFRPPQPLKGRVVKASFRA
Sequence of Carbonic anhydrase 5B, mitochondrial (Q9Y2D0 whole entry): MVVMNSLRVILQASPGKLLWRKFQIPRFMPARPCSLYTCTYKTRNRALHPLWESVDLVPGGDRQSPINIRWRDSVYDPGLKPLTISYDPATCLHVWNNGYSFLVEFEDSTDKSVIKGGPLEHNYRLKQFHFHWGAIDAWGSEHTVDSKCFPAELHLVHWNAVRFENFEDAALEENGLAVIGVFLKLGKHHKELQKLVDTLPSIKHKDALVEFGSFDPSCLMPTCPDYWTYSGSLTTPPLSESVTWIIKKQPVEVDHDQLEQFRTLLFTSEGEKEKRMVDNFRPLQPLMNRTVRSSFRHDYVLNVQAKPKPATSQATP
Sequence of Carbonic anhydrase 12 (O43570 whole entry): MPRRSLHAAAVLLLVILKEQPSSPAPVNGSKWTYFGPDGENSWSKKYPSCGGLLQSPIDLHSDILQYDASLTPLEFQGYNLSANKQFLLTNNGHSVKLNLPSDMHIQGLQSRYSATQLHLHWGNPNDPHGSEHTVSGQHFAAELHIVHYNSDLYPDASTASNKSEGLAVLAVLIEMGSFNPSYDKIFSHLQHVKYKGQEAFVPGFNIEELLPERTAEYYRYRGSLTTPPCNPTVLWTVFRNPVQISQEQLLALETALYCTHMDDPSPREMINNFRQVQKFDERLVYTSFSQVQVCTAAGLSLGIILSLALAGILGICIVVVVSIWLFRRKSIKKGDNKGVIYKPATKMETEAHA

Row | Ki (Carbonic anhydrase 12) | Ki [1] | Ki (Carbonic anhydrase 7) | Ki (Carbonic anhydrase 2) | Ki (Carbonic anhydrase 4) | Ki (Carbonic anhydrase 1) | Ki [3] | SMILES | mortality (in vivo [2]) | mortality (in vivo [4])
1 | 9.4 nM | 8.7 nM | 2.8 nM | 5.1 nM | 378 nM | 85.2 nM | 90.6 nM | CC(=O)OC[C@H]1O[C@@H]([Se]c2ccc(NC(=O)c3ccc(S(N)(=O)=O)cc3)cc2)[C@H](OC(C)=O)[C@@H](OC(C)=O)[C@@H]1OC(C)=O |  | 
2 | 42.3 nM | 2.6 nM | 0.8 nM | 17.2 nM | 146 nM | 86.2 nM | 96.8 nM | CC(=O)O[C@H]1[C@@H](OC(C)=O)[C@@H](CO)O[C@@H]([Se]c2ccc(S(N)(=O)=O)cc2)[C@@H]1OC(C)=O |  | 
3 | 90.5 nM | 88 nM | 9.6 nM | 1.7 nM | 348 nM | 48 nM | 120 nM | NS(=O)(=O)c1ccc(C(=O)Nc2ccc([Se][C@@H]3O[C@H](CO)[C@H](O)[C@H](O)[C@H]3O)cc2)cc1 |  | 
4 | 5.6 nM | 4 nM | 0.7 nM | 4 nM | 30.8 nM | 51.4 nM | 57.4 nM | CC(=O)OC[C@H]1O[C@@H]([Se]c2ccc(NC(=O)c3ccc(S(N)(=O)=O)cc3)cc2)[C@H](OC(C)=O)[C@@H](OC(C)=O)[C@H]1OC(C)=O |  | 
5 | > 10000 nM | 40.9 nM | 87.3 nM | 214 nM | 1570 nM | > 10000 nM | 348 nM | CC(=O)OC[C@H]1O[C@@H]([Se]c2ccc(NC(=O)c3ccc(Cl)c(S(N)(=O)=O)c3)cc2)[C@H](OC(C)=O)[C@@H](OC(C)=O)[C@@H]1OC(C)=O |  | 
6 | 7.2 nM | 3 nM | 0.9 nM | 6.1 nM | 8.9 nM | 46.4 nM | 45.1 nM | NS(=O)(=O)c1ccc(C(=O)Nc2ccc([Se][C@@H]3O[C@H](CO)[C@@H](O)[C@H](O)[C@H]3O)cc2)cc1 |  | 
7 | 34.2 nM | 4.7 nM | 2 nM | 6.6 nM | 362 nM | 48.1 nM | 482 nM | CC(=O)OC[C@H]1O[C@@H]([Se]c2ccc(NC(=S)Nc3ccc(S(N)(=O)=O)cc3)cc2)[C@H](OC(C)=O)[C@@H](OC(C)=O)[C@H]1OC(C)=O |  | 
8 | 5.9 nM | 5.5 nM | 4.1 nM | 3.7 nM | 67.1 nM | 78.4 nM | 736 nM | CC(=O)O[C@@H]1[C@@H](OC(C)=O)[C@H]([Se]c2ccc(S(N)(=O)=O)cc2)O[C@H](CO)[C@H]1OC(C)=O |  | 
9 | > 10000 nM | > 10000 nM | > 10000 nM | 6290 nM | > 10000 nM | > 10000 nM | 2540 nM | CC(=O)OC[C@H]1O[C@@H]([Se]c2ccc(S(N)(=O)=O)c(N)c2)[C@H](OC(C)=O)[C@@H](OC(C)=O)[C@@H]1OC(C)=O |  | 
10 | 88.7 nM | 21.9 nM | 29.7 nM | 14.8 nM | 77.7 nM | 637 nM | 215 nM | NS(=O)(=O)c1cc(C(=O)Nc2ccc([Se][C@@H]3O[C@H](CO)[C@H](O)[C@H](O)[C@H]3O)cc2)ccc1Cl |  | 
11 | > 10000 nM | 172 nM | > 10000 nM | 6660 nM | 7280 nM | 6820 nM | 236 nM | CC(=O)O[C@H]1[C@@H](OC(C)=O)[C@@H](CO)O[C@@H]([Se]c2ccc(S(N)(=O)=O)c(N)c2)[C@@H]1OC(C)=O |  | 
12 | 55.8 nM | 8.9 nM | 1.8 nM | 6.3 nM | 555 nM | 53.1 nM | 254 nM | CC(=O)OC[C@H]1O[C@@H]([Se]c2ccc(NC(=S)Nc3ccc(S(N)(=O)=O)cc3)cc2)[C@H](OC(C)=O)[C@@H](OC(C)=O)[C@@H]1OC(C)=O |  | 
13 |  | 4.2 nM | 2.2 nM |  |  |  |  | NS(=O)(=O)c1ccc(S(=O)(=O)[C@@H]2O[C@H](CO)[C@@H](O)[C@H](O)[C@H]2O)cc1 |  | 
14 | > 10000 nM | 406 nM | > 10000 nM | 6320 nM | > 10000 nM | 9600 nM | 6570 nM | CC(=O)OC[C@H]1O[C@@H]([Se]c2ccc(S(N)(=O)=O)c(N)c2)[C@H](OC(C)=O)[C@@H](OC(C)=O)[C@H]1OC(C)=O |  | 
15 | 804 nM | 6.6 nM | 0.5 nM | 4.1 nM | 344 nM | 95.8 nM | 87.2 nM | CC(=O)OC[C@H]1O[C@@H]([Se]c2ccc(S(N)(=O)=O)cc2)[C@H](OC(C)=O)[C@@H](OC(C)=O)[C@H]1OC(C)=O |  | 

Row | SMILES | Ki (Carbonic anhydrase 12) | Ki [1] | Ki (Carbonic anhydrase 7) | Ki (Carbonic anhydrase 2) | Ki (Carbonic anhydrase 4) | Ki (Carbonic anhydrase 1) | Ki [3] | mortality (in vivo [2]) | mortality (in vivo [4])
16 | CC(=O)OC[C@H]1O[C@@H]([Se]c2ccc(S(N)(=O)=O)cc2)[C@H](OC(C)=O)[C@@H](OC(C)=O)[C@@H]1OC(C)=O | 9440 nM | 707 nM | 14.6 nM | 41.4 nM | 4120 nM | 80.3 nM | 596 nM | 20% | 
17 | NS(=O)(=O)c1ccc([Se][C@@H]2O[C@H](CO)[C@H](O)[C@H](O)[C@H]2O)cc1 | 82.4 nM | 8.7 nM | 30.3 nM | 53.7 nM | 580 nM | 647 nM | 427 nM |  | 
18 | NS(=O)(=O)c1ccc([Se][C@@H]2O[C@H](CO)[C@@H](O)[C@H](O)[C@H]2O)cc1 | 589 nM | 87.3 nM | 263 nM | 13.8 nM | 647 nM | 541 nM | 325 nM |  | 
19 | Nc1cc([Se][C@@H]2O[C@H](CO)[C@@H](O)[C@H](O)[C@H]2O)ccc1S(N)(=O)=O | 2560 nM | > 10000 nM | > 10000 nM | 4010 nM | > 10000 nM | 7680 nM | 2300 nM |  | 
20 | NS(=O)(=O)c1ccc(NC(=S)Nc2ccc([Se][C@@H]3O[C@H](CO)C(O)[C@H](O)[C@H]3O)cc2)cc1 (single isomer, unassigned; 16a) | 19.8 nM | 7.6 nM | 4.4 nM | 5.2 nM | 283 nM | 71.4 nM | 70.5 nM |  | 30%
21 | NS(=O)(=O)c1ccc(NC(=S)Nc2ccc([Se][C@@H]3O[C@H](CO)C(O)[C@H](O)[C@H]3O)cc2)cc1 (single isomer, unassigned; 16b) | 9.1 nM | 6.2 nM | 0.9 nM | 4.5 nM | 77.7 nM | 41.5 nM | 358 nM |  | 
